Measurements taken from US5942494A, “Stimulation of gene expression and synthesis of heat shock protein 72/73 (HSP 70)” (The Trustees of Columbia University in the City of New York, priority 1996, dated 1999).
Square brackets hold non-standard residues; d marks the D form. Peptide text beside a SMILES is read from it. Nle = CCCC[C@H](N)C(=O)O

Legend:
Hsp70 = Hsp70 level in human microvascular endothelial cell line; assay type: cell-based; settings: ALLN 40 μg/ml, 4 hours, 30 min. labeling
Procedure: ALLN induces Hsp70 protein levels in HepG2 cells in a dose-dependent manner. The effect of ALLN on the protein levels of Hsp70 was analysed by denaturing immunoprecipitation of extracts of [^3 H]-leucine radiolabeled HepG2 cells which had been pre-treated with ALLN for 4 hours at different doses. Denaturing immunoprecipitation was chosen because Hsp70 is a major cytosolic chaperone protein and it is co-immunoprecipitated with a number of other proteins under non-denaturingconditions (Beckmann, et al., 1990; Zhou, et al., 1995). […] This may be due to a low constitutive level of expression of Hsp73 (Hsp70) in HepG2 cells similar to that reported for other cell types in the absence of stress (Welch, et al., 1984). Treatment with ALLN was associated with a marked increase in Hsp70 level, which was further confirmed as Hsp72 (the inducible form) by Western blot (data not shown).

apoB = settings: Sakata, et al., 1993, unpublished data; cited from earlier work
Hsp86 = test: Immunoprecipitation of Hsp86 from radiolabeled HepG2 cells; assay type: cell-based, human; settings: HepG2, ALLN 4 hours
Procedure: FIGS. 7A-7B: Effects of ALLN on the biosynthesis of other members of Hsp family and related proteins. HepG2 cells were pre-treated and radiolabeled with or without ALLN for 4 hours as described in FIG. 1. Cell lysates were used for SDS-PAGE (A), or for immunoprecipitation with anti-Hsp25, -Hsp27, -Hsp60, -Hsp70, -Hsp86, -Hsp90, -Hsp104, -Bip, or -albumin antibodies respectively (1 μg/ml) (B). Because the anti-Hsp25, -Hsp27, -Hsp60 and Hsp90 antibodies are from a rat source, rabbit anti-rat IgG antibody was added after the first incubation, and the incubation was extended for another 1 hour at 4° C. before collection with protein A-Sepharose.Immunoprecipitates were loaded for SDS-PAGE and aliquoted for scintillation counting and plotting. Each value was presented as mean ±S.D. from three individual culture dishes.
HepG2 cells were preincubated for 4 hours in serum-free MEM and then radiolabeled with ^3 H-Leucine (150 μCi/ml) in a serum-free, leucine-free medium. […] Cell lysates containing equal amounts of trichloroacetic acid (TCA)-insoluble radioactivity were used for immunoprecipitations by incubating with individual monoclonal antibody (1 μg/ml) for 2.5 hours at 4° C. […]

CCCC[C@@H](C=O)NC(=O)[C@H](CC(C)C)NC(=O)[C@H](CC(C)C)NC(C)=O [ALLN, N-acetyl-leucyl-leucyl-norleucinal] (Ac-Leu-Leu-[Nle]-aldehyde)
Increment of Hsp70 level (Hsp70): 35 fold
Protection of apoB (apoB): protected
Effect on Hsp86 (Hsp86): no effects
